Source: article PMC11093748, “De novo identification of CD4^+ T cell epitopes” (Nature Methods, 2024)

Experiments:
Assay in all cases: I-Ag7 SABR-II library screen, enrichment score
Format in all cases: cell-based, mouse
TCR23 = test system: TCR23
Text: (§1) We then asked whether SABR-IIs could be used to present a library of epitopes for CD4^+ T cell antigen discovery. To that end, we constructed a SABR-II library to present epitopes derived from pancreatic islets in I-Ag7 by curating a list of 4,075 published epitopes from the Immune Epitope Database (iedb.org)[50] and a study by Wan et al.[51] (Supplementary Table 1). Of note, this defined library consisted of unmodified epitopes from endogenous proteins, synthetic mimotopes, deamidated epitopes and hybrid insulin peptides (HIPs) that arise from post-translational fusion and are not genetically encoded in vivo[52],[53]. The epitope library was inserted into the I-Ag7 SABR-II backbone through pooled oligonucleotide synthesis, amplification and ligation-free cloning (Extended Data Fig. 3a). The I-Ag7 SABR-II-library was then expressed in NFAT–GFP Jurkat cells. We confirmed that after sequencing, the library accounted for a mean of 708 reads per epitope (Extended Data Fig. 3b). As a proof of concept, we performed co-incubation assays with Jurkat cells expressing the BDC2.5 TCR and sorted the top 1–2% of GFP^+CD69^+ cells at a rate of ~20 min per replicate with three replicates per TCR. We extracted the genomic DNA from sorted cells, amplified the SABR portion of the integrated proviruses and subjected the amplicons to Illumina sequencing (Extended Data Fig. 3c,d). The 1–2% sort gate represents >50-fold enrichment of cognate epitopes with minimal loss of signal (Extended Data Fig. 3e–h). Sequence reads were aligned to the I-Ag7 SABR-II backbone and the corresponding epitopes were scored based on their read counts. For each TCR under investigation, an enrichment score (ES) was determined for all the epitopes in a library. In each experiment, three replicates of a sort with TCR-expressing Jurkat cells were performed and reads were counted post-sequencing. In addition, three replicates of the unsorted library were also sequenced. A linear regression model was built using the unsorted library counts and used to determine the expected abundance of each epitope in the library. The ES was calculated based on the difference between the measured and the expected abundance of each epitope on a per-TCR basis (Fig. 1e). Based on ES values, two quantitative thresholds were used to determine putative cognate epitopes of a given TCR. A high-confidence zone containing clear outliers with a high ES and a low-confidence zone containing weak outliers with a moderately high ES were determined (Fig. 1e). This two-tiered strategy was used to call putative hits from screens. All the top-scoring epitopes for the BDC2.5 TCR were known BDC2.5 ligands containing the WXRM(D/E) motif (Fig. 1f,g, enriched ligands in red), a well-characterized trait of the BDC2.5 TCR[43],[54]–[56]. Across several independent experiments there was limited variation in ES values for the same TCRs and several epitopes fell into high- or low-confidence zones consistently (Extended Data Fig. 4a). Using a different TCR that was isolated from NOD mice, 4-8Ins[57], which recognized the InsB9:23 epitope ([…]), we observed a similar pattern of ES for cognate epitopes (Extended Data Fig. 4b).
(§2) We performed systematic screening of the cloned TCRs against the I-Ag7 SABR-II library. Several TCRs along with a positive control (such as BDC2.5 or 4-8Ins) were screened individually against the library for each sort (Extended Data Fig. 6a and Supplementary Table 4). High- and low-confidence ES zones for each screened TCR were defined by the ES values of the control TCR’s cognate epitopes. For all putative cognate epitopes, single SABR-IIs were constructed, expressed in NFAT–GFP Jurkat cells and used for co-incubation with the corresponding TCRs. Co-incubation assays that yielded a GFP signal higher than that obtained in assays with no TCR were determined to be positive and the epitopes deemed true cognate ligands (Extended Data Fig. 6b,c). […]

TCR21B = settings: TCR_Mean minus PREDICTED_TCR (slope 0.954708, intercept 1.11146e-5 on LIB_Mean), TCR 21B, run PZ56
Text: as §1, §2

TCR37 = settings: for Enrichment score: TCR_Mean minus PREDICTED_TCR (slope 0.904637, intercept 2.34021e-5 on LIB_Mean), TCR 37, run PZ57
Text: as §1, §2

TCR17D = settings: TCR_Mean minus PREDICTED_TCR (from LIB_Mean, SLOPE 0.965121, INTERCEPT 8.55929e-6), PZ52
Text: as §1, §2

TCR17A = settings: TCR_Mean minus PREDICTED_TCR (from LIB_Mean, SLOPE 0.925966, INTERCEPT 1.81678e-5), PZ52
Text: as §1, §2

TCR15 = settings: for Enrichment score: TCR15, TCR_Mean minus PREDICTED_TCR (from LIB_Mean, SLOPE 0.918454, INTERCEPT 2.00113e-5), PZ37
Text: as §1, §2

TCR4 = settings: for Enrichment score: sheet TCR4-PZ44, ES = TCRObserved - TCRPredicted, TCRPredicted = LIBObserved x SLOPE + INTERCEPT, SLOPE 0.903208, INTERCEPT 2.37527e-5
Text: as §1, §2

TCR11 = settings: for Enrichment score: TCR11, TCR_Mean minus PREDICTED_TCR (from LIB_Mean, SLOPE 0.869084, INTERCEPT 3.21267e-5), PZ51
Text: as §1, §2

TCR30 = settings: for Enrichment score: TCR_Mean minus PREDICTED_TCR (slope 0.934363, intercept 1.61073e-5 on LIB_Mean), TCR 30, run PZ98
Text: as §1, §2

TCR26 = settings: TCR_Mean minus PREDICTED_TCR (slope 0.971972, intercept 6.87806e-6 on LIB_Mean), TCR 26, run PZ56
Text: as §1, §2

TCR2 = settings: sheet TCR2-PZ44; ES = TCRObserved - TCRPredicted; TCRPredicted = LIBObserved x SLOPE + INTERCEPT; SLOPE 0.908797, INTERCEPT 2.23811e-5
Text: as §1, §2

TCR24 = settings: for Enrichment score: TCR_Mean minus PREDICTED_TCR (slope 0.96363, intercept 8.9252e-6 on LIB_Mean), TCR 24, run PZ98
Text: as §1, §2

[1] = I-Ag7 library, one biological experiment
[2] = TCR_Mean minus PREDICTED_TCR (slope 0.987149, intercept 3.15366e-6 on LIB_Mean), TCR 23, run PZ56

| Sequence | Enrichment score (TCR23; [1]) | Enrichment score (TCR23; [2]) | Enrichment score (TCR21B) | Enrichment score (TCR37) | Enrichment score (TCR17D) | Enrichment score (TCR17A) | Enrichment score (TCR15) | Enrichment score (TCR4) | Enrichment score (TCR11) | Enrichment score (TCR30) | Enrichment score (TCR26) | Enrichment score (TCR2) | Enrichment score (TCR24) | recognition by TCR (screen hit, validated by single SABR-II co-incubation) (TCR15; high-confidence zone) | recognition by TCR (screen hit, validated by single SABR-II co-incubation) (TCR4; high-confidence zone) | recognition by TCR (screen hit, validated by single SABR-II co-incubation) (TCR37; high-confidence zone) | recognition by TCR (screen hit, validated by single SABR-II co-incubation) (TCR11; low-confidence hit) | recognition by TCR (screen hit, validated by single SABR-II co-incubation) (TCR30; low-confidence hit) | recognition by TCR (screen hit, validated by single SABR-II co-incubation) (TCR24; high-confidence zone) |
| --- | --- | --- | --- | --- | --- | --- | --- | --- | --- | --- | --- | --- | --- | --- | --- | --- | --- | --- | --- |
| ALVREGLRNVAAGANP | -1.174e-5 | -3.805e-6 | -1.174e-5 | -2.34e-5 | -8.6588e-6 | -1.826e-5 | -2.061e-5 | -2.375e-5 | -3.213e-5 | -1.611e-5 | -7.519e-6 | -2.238e-5 | -8.9252e-6 |  |  |  |  |  |  |
| AKAAVEEGIVAGGGV | -2.11e-5 | -9.2e-5 | -2.11e-5 | -6.503e-5 | -0.0001083 | 7.661e-5 | 1.733e-5 | -0.0001441 | 0.0001401 | 8.616e-5 | -6.247e-5 | -6.466e-5 | 2.968e-5 |  |  |  |  |  |  |
| AEKVRNLPAGHGLNAQ | 8.732e-6 | 0.0001238 | 8.732e-6 | 0.0002899 | -0.00018 | -0.0001276 | 0.000168 | -5.549e-7 | 0.0002492 | 0.0001445 | 4.292e-6 | 0.0001311 | 0.0001713 |  |  |  |  |  |  |
| LQTLALNAARDP |  |  |  |  |  |  |  |  |  |  |  |  |  | recognized | recognized |  |  |  |  |
| AAVEEGIVAGGGVTLL | -9.242e-5 | 8.213e-5 | -9.242e-5 | -4.879e-5 | 9.065e-5 | -0.0001329 | -0.000165 | 3.881e-5 | 9.192e-5 | -2.605e-6 | -0.0002176 | 9.944e-5 | 0.0001615 |  |  |  |  |  |  |
| AGGVAVIKAGAATEV | -9.6548e-5 | -7.52e-5 | -9.6548e-5 | -0.0001031 | -6.024e-5 | -5.895e-5 | 2.956e-5 | 2.046e-5 | -2.692e-5 | -2.42e-5 | -8.754e-5 | -1.7e-5 | -1.094e-5 |  |  |  |  |  |  |
| SHLVEALYLVCGERG |  |  |  |  |  |  |  |  |  |  |  |  |  |  |  | recognized | confirmation of reactivity | confirmation of reactivity | recognized |
